Test results taken from US10258556B2, “Anti-aging peptide, its composition and method of using the same” (priority 2017, dated 2019).
Residues, ends and D or L forms follow the SMILES beside them.

Tested on: CCD-966SK fibroblast cells
Experiment: MTT assay (cell viability)
Type: cell-based, human
Conditions: peptide at different concentrations, 24, 48 and 72 hours, FIG. 3
Method: CCD-966SK was skin fibroblast cells isolated from human breast and was purchased from BCRC (Bioresource Collection and Research Center, Hsinchu, Taiwan). It was cultured in Dulbecco's Modified Eagle Medium (DMEM) containing 10% (v/v) FBS and penicillin/streptomycin (100 IU/[…]) in 5% CO2 at 37° C.
The cells (3×10^3) in 100 μl complete DMEM were seeded in 96-well plates with or without MUC20 peptide NO.10. Ten microliters of 5 mg/ml 3-(4,5-dimethyl-2-thiazolyl)-2,5-diphenyl-2H-tetrazolium bromide solution (MTT; Sigma) was added to each well and incubated at 37° C. for 3 hours. After that, 100 μl 10% SDS in 0.01N HCl was added to dissolve the MTT formazan crystals. The resultant optical density was measured by spectrophotometry at dual wavelengths, 550 and 630 nm.
The cell viability of the CCD-966SK fibroblast cells was analyzed by MTT assays. The results were obtained from three independent experiments. The results of the cells treated with the peptide of SEQ ID NO: 1 for 24 hours (upper panel), 48 hours (middle panel), and 72 hours (lower panel) were shown in FIG. 3.

SMILES: C[C@H](NC(=O)[C@H](CCC(=O)O)NC(=O)[C@@H](NC(=O)[C@H](CO)NC(=O)[C@H](CC(=O)O)NC(=O)[C@@H]1CCCN1)[C@@H](C)O)C(=O)N[C@@H](CCCCN)C(=O)O [peptide of SEQ ID NO: 1, ProAspSerThrGluAlaLys] (H-PDSTEAK-OH)
- viability of the CCD-966SK fibroblast cells: did not significantly affect viability
